ChEMBL document CHEMBL6078622, “Enhancing outer membrane permeability of tetracycline antibiotics in P. aeruginosa using TOB-CIP conjugates” (RSC Med Chem, 2024)
Calls of active or inactive are those of the source. No cut-off for these calls is given here.

Columns and labels:
Acinetobacter baumannii = test: Antibacterial activity against Acinetobacter baumannii ATCC 17978 assessed as inhibition of visible bacterial growth by CLSI based broth-microdilution method; format: functional
Pseudomonas aeruginosa [1] = test: Synergistic antibacterial activity against Pseudomonas aeruginosa PAO1 assessed as fold change in doxycycline MIC by checkerboard analysis relative to doxycycline alone; format: functional
Pseudomonas aeruginosa [2] = test: Synergistic antibacterial activity against Pseudomonas aeruginosa PAO1 assessed as fold change in tigecycline MIC by checkerboard analysis relative to Tigecycline alone; format: functional
Pseudomonas aeruginosa [3] = test: Antibacterial activity against Pseudomonas aeruginosa PA114228 assessed as inhibition of visible bacterial growth by CLSI based broth-microdilution method; format: functional
Pseudomonas aeruginosa [4] = test: Antibacterial activity against Pseudomonas aeruginosa PA200 assessed as inhibition of visible bacterial growth by CLSI based broth-microdilution method; format: functional
Pseudomonas aeruginosa [5] = test: Synergistic antibacterial activity against Pseudomonas aeruginosa PA262 in presence of minocycline by checkerboard assay; format: functional
Pseudomonas aeruginosa [6] = test: Synergistic antibacterial activity against Pseudomonas aeruginosa PA264 in presence of minocycline by checkerboard assay; format: functional
Pseudomonas aeruginosa [7] = test: Synergistic antibacterial activity against Pseudomonas aeruginosa PA264 in presence of tigecycline by checkerboard assay; format: functional
Pseudomonas aeruginosa [8] = test: Synergistic antibacterial activity against Pseudomonas aeruginosa PA264 in presence of eravacycline by checkerboard assay; format: functional
Pseudomonas aeruginosa [9] = test: Synergistic antibacterial activity against Pseudomonas aeruginosa PA100036 in presence of minocycline by checkerboard assay; format: functional
Pseudomonas aeruginosa [10] = test: Synergistic antibacterial activity against Pseudomonas aeruginosa PA100036 in presence of doxycycline by checkerboard assay; format: functional
Pseudomonas aeruginosa [11] = test: Synergistic antibacterial activity against Pseudomonas aeruginosa PA100036 in presence of eravacycline by checkerboard assay; format: functional
Pseudomonas aeruginosa [12] = test: Synergistic antibacterial activity against Pseudomonas aeruginosa PA101243 in presence of doxycycline by checkerboard assay; format: functional
Pseudomonas aeruginosa [13] = test: Synergistic antibacterial activity against Pseudomonas aeruginosa PA101243 in presence of eravacycline by checkerboard assay; format: functional
Pseudomonas aeruginosa [14] = test: Antibacterial activity against Pseudomonas aeruginosa PA259 assessed as minocycline MIC by CLSI based broth-microdilution method; format: functional
Pseudomonas aeruginosa [15] = test: Antibacterial activity against Pseudomonas aeruginosa PA264 assessed as doxycycline MIC by CLSI based broth-microdilution method; format: functional
Pseudomonas aeruginosa [16] = test: Antibacterial activity against Pseudomonas aeruginosa PA114228 assessed as tigecycline MIC by CLSI based broth-microdilution method; format: functional
Pseudomonas aeruginosa [17] = test: Antibacterial activity against Pseudomonas aeruginosa PA101243 assessed as minocycline MIC by CLSI based broth-microdilution method; format: functional
Pseudomonas aeruginosa [18] = test: Antibacterial activity against Pseudomonas aeruginosa PA200 assessed as minocycline MIC by CLSI based broth-microdilution method; format: functional
Pseudomonas aeruginosa [19] = test: Antibacterial activity against Pseudomonas aeruginosa PA200 assessed as tigecycline MIC by CLSI based broth-microdilution method; format: functional
Pseudomonas aeruginosa [20] = test: Synergistic antibacterial activity against Pseudomonas aeruginosa PA259 assessed as fractional inhibitory concentration index in presence of doxycycline by checkerboard assay; format: functional
Pseudomonas aeruginosa [21] = test: Synergistic antibacterial activity against Pseudomonas aeruginosa PA262 assessed as fractional inhibitory concentration index in presence of eravacycline by checkerboard assay; format: functional
Pseudomonas aeruginosa [22] = test: Synergistic antibacterial activity against Pseudomonas aeruginosa PA264 assessed as fractional inhibitory concentration index in presence of minocycline by checkerboard assay; format: functional
Pseudomonas aeruginosa [23] = test: Synergistic antibacterial activity against Pseudomonas aeruginosa PA264 assessed as fractional inhibitory concentration index in presence of eravacycline by checkerboard assay; format: functional
Pseudomonas aeruginosa [24] = test: Synergistic antibacterial activity against Pseudomonas aeruginosa PA114228 assessed as fractional inhibitory concentration index in presence of minocycline by checkerboard assay; format: functional
Pseudomonas aeruginosa [25] = test: Synergistic antibacterial activity against Pseudomonas aeruginosa PA114228 assessed as fractional inhibitory concentration index in presence of doxycycline by checkerboard assay; format: functional
Pseudomonas aeruginosa [26] = test: Synergistic antibacterial activity against Pseudomonas aeruginosa PA114228 assessed as fractional inhibitory concentration index in presence of tigecycline by checkerboard assay; format: functional
Pseudomonas aeruginosa [27] = test: Synergistic antibacterial activity against Pseudomonas aeruginosa PA101243 assessed as fractional inhibitory concentration index in presence of minocycline by checkerboard assay; format: functional
Pseudomonas aeruginosa [28] = test: Synergistic antibacterial activity against Pseudomonas aeruginosa PA095 assessed as fractional inhibitory concentration index in presence of tigecycline by checkerboard assay; format: functional
Pseudomonas aeruginosa [29] = test: Synergistic antibacterial activity against Pseudomonas aeruginosa PA200 assessed as fractional inhibitory concentration index in presence of doxycycline by checkerboard assay; format: functional
Pseudomonas aeruginosa [30] = test: Synergistic antibacterial activity against Pseudomonas aeruginosa PA200 assessed as fractional inhibitory concentration index in presence of tigecycline by checkerboard assay; format: functional
Pseudomonas aeruginosa [31] = test: Synergistic antibacterial activity against Pseudomonas aeruginosa PA264 assessed as fold change in minocycline MIC by CLSI based broth-microdilution method relative to minocycline alone; format: functional
Pseudomonas aeruginosa [32] = test: Synergistic antibacterial activity against Pseudomonas aeruginosa PA264 assessed as fold change in tigecycline MIC by CLSI based broth-microdilution method relative to tigecycline alone; format: functional
Pseudomonas aeruginosa [33] = test: Synergistic antibacterial activity against Pseudomonas aeruginosa PA264 assessed as fold change in eravacycline MIC by CLSI based broth-microdilution method relative to eravacycline alone; format: functional
Pseudomonas aeruginosa [34] = test: Synergistic antibacterial activity against Pseudomonas aeruginosa PA100036 assessed as fold change in tigecycline MIC by CLSI based broth-microdilution method relative to tigecycline alone; format: functional
Pseudomonas aeruginosa [35] = test: Synergistic antibacterial activity against Pseudomonas aeruginosa PA100036 assessed as fold change in eravacycline MIC by CLSI based broth-microdilution method relative to eravacycline alone; format: functional
Pseudomonas aeruginosa [36] = test: Synergistic antibacterial activity against Pseudomonas aeruginosa PA114228 assessed as fold change in doxycycline MIC by CLSI based broth-microdilution method relative to doxycycline alone; format: functional
Pseudomonas aeruginosa [37] = test: Synergistic antibacterial activity against Pseudomonas aeruginosa PA114228 assessed as fold change in tigecycline MIC by CLSI based broth-microdilution method relative to tigecycline alone; format: functional
Pseudomonas aeruginosa [38] = test: Synergistic antibacterial activity against Pseudomonas aeruginosa PA114228 assessed as fold change in eravacycline MIC by CLSI based broth-microdilution method relative to eravacycline alone; format: functional
Pseudomonas aeruginosa [39] = test: Synergistic antibacterial activity against Pseudomonas aeruginosa PA101243 assessed as fold change in doxycycline MIC by CLSI based broth-microdilution method relative to doxycycline alone; format: functional
Pseudomonas aeruginosa [40] = test: Synergistic antibacterial activity against Pseudomonas aeruginosa PA095 assessed as fold change in doxycycline MIC by CLSI based broth-microdilution method relative to doxycycline alone; format: functional
Pseudomonas aeruginosa [41] = test: Synergistic antibacterial activity against Pseudomonas aeruginosa PA095 assessed as fold change in eravacycline MIC by CLSI based broth-microdilution method relative to eravacycline alone; format: functional
Pseudomonas aeruginosa [42] = test: Synergistic antibacterial activity against Pseudomonas aeruginosa PA200 assessed as fold change in tigecycline MIC by CLSI based broth-microdilution method relative to tigecycline alone; format: functional
Pseudomonas aeruginosa [43] = test: Antibacterial activity against Pseudomonas aeruginosa PA264 assessed as reduction in bacterial load incubated for 2 hrs in presence of eravacycline by time kill assay; format: functional, organism-based
HEK293 = test: Cytotoxicity against HEK293 cells assessed as reduction in cell viability at 162 uM; format: toxicity, cell-based; details: human, hek293, 162 µM

Cl.Cl.Cl.Cl.Cl.Cl.NC[C@H]1O[C@H](O[C@H]2[C@H](OCCCCCCCCCCCCNC(=O)c3cn(C4CC4)c4cc(N5CCNCC5)c(F)cc4c3=O)[C@@H](O[C@H]3O[C@H](CO)[C@@H](O)[C@H](N)[C@H]3O)[C@H](N)C[C@@H]2N)[C@H](N)C[C@@H]1O
MIC (Acinetobacter baumannii): > 128 µg/mL
fold change (FC) (Pseudomonas aeruginosa [1]): 64
fold change (FC) (Pseudomonas aeruginosa [2]): 64
MIC (Pseudomonas aeruginosa [3]): > 128 µg/mL
MIC (Pseudomonas aeruginosa [4]): 32 µg/mL
MIC (Pseudomonas aeruginosa [5]): 8 µg/mL
MIC (Pseudomonas aeruginosa [6]): 8 µg/mL
MIC (Pseudomonas aeruginosa [7]): 8 µg/mL
MIC (Pseudomonas aeruginosa [8]): 8 µg/mL
MIC (Pseudomonas aeruginosa [9]): 8 µg/mL
MIC (Pseudomonas aeruginosa [10]): 8 µg/mL
MIC (Pseudomonas aeruginosa [11]): 8 µg/mL
MIC (Pseudomonas aeruginosa [12]): 8 µg/mL
MIC (Pseudomonas aeruginosa [13]): 8 µg/mL
MIC (Pseudomonas aeruginosa [14]): 0.25 µg/mL
MIC (Pseudomonas aeruginosa [15]): 0.5 µg/mL
MIC (Pseudomonas aeruginosa [16]): 16 µg/mL
MIC (Pseudomonas aeruginosa [17]): 2 µg/mL
MIC (Pseudomonas aeruginosa [18]): 1 µg/mL
MIC (Pseudomonas aeruginosa [19]): 0.25 µg/mL
fractional inhibitory concentration index (FICI) (Pseudomonas aeruginosa [20]): 0.008
fractional inhibitory concentration index (FICI) (Pseudomonas aeruginosa [21]): 0.062
fractional inhibitory concentration index (FICI) (Pseudomonas aeruginosa [22]): 0.031
fractional inhibitory concentration index (FICI) (Pseudomonas aeruginosa [23]): 0.008
fractional inhibitory concentration index (FICI) (Pseudomonas aeruginosa [24]): 0.008
fractional inhibitory concentration index (FICI) (Pseudomonas aeruginosa [25]): 0.004
fractional inhibitory concentration index (FICI) (Pseudomonas aeruginosa [26]): 0.25
fractional inhibitory concentration index (FICI) (Pseudomonas aeruginosa [27]): 0.25
fractional inhibitory concentration index (FICI) (Pseudomonas aeruginosa [28]): 0.265
fractional inhibitory concentration index (FICI) (Pseudomonas aeruginosa [29]): 0.257
fractional inhibitory concentration index (FICI) (Pseudomonas aeruginosa [30]): 0.187
fold change (FC) (Pseudomonas aeruginosa [31]): 128
fold change (FC) (Pseudomonas aeruginosa [32]): 32
fold change (FC) (Pseudomonas aeruginosa [33]): 64
fold change (FC) (Pseudomonas aeruginosa [34]): 64
fold change (FC) (Pseudomonas aeruginosa [35]): 256
fold change (FC) (Pseudomonas aeruginosa [36]): 128
fold change (FC) (Pseudomonas aeruginosa [37]): 128
fold change (FC) (Pseudomonas aeruginosa [38]): 256
fold change (FC) (Pseudomonas aeruginosa [39]): 2
fold change (FC) (Pseudomonas aeruginosa [40]): 16
fold change (FC) (Pseudomonas aeruginosa [41]): 4
fold change (FC) (Pseudomonas aeruginosa [42]): 16
Activity (Pseudomonas aeruginosa [43]): Active
Activity (HEK293): 60%
